Counter-ions that a name gives are not always drawn.
Biological target: hBTK (full-length BTK, 6HIS-tag cleaved) (Homo sapiens (Human), UniProt Q06187)
Experiment: BTK enzymatic activity, LANCE TR-FRET assay (Assay Method C)
Assay type: biochemical
Conditions: LANCE TR-FRET, 50 pM hBTK, 25 μM ATP; class 100-1000 is given as ≧100 nM-<1 μM; read-out: IC50 Btk activity values - Assay Method C

hBTK (full-length BTK, 6HIS-tag cleaved), sequence (Q06187 whole entry): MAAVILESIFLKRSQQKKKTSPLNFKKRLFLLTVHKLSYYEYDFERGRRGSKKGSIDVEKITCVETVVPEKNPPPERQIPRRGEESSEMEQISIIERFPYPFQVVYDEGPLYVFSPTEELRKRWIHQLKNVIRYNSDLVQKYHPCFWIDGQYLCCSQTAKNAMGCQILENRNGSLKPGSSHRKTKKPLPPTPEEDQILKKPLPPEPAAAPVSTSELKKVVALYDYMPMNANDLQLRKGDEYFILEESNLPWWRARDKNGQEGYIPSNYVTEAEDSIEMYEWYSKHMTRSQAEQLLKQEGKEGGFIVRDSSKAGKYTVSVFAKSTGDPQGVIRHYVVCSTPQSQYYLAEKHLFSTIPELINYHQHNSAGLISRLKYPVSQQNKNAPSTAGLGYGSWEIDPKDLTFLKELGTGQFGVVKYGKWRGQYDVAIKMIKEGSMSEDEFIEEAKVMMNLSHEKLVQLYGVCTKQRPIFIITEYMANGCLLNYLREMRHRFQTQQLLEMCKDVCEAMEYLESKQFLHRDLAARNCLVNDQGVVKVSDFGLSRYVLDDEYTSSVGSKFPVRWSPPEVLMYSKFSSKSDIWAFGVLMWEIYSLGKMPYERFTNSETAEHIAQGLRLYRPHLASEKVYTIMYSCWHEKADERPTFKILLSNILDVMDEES

Row | IC50 [µM] | Structure (SMILES)
1 | < 0.01 | Nc1ncnc2c1c(-c1ccc(C(=O)Nc3cc(C(F)(F)F)ccn3)cc1)nn2[C@H]1CCCc2nn(CCO)cc21 [Example 564, 4-{4-amino-1-[(4S)-2-(2-hydroxyethyl)-4,5,6,7-tetrahydro-2H-indazol-4-yl]-1H-pyrazolo[3,4-d]pyrimidin-3-yl}-N-[4-(trifluoromethyl)pyridin-2-yl]benzamide, TFA salt]
2 | < 0.01 | CC1(C(=O)N2CCC[C@@H](c3nc(-c4ccc(C(=O)Nc5cc(C(F)(F)F)ccn5)cc4F)c4c(N)ncc(Cl)n34)C2)COC1 [Example 447, 4-(8-amino-5-chloro-3-{(3R)-1-[(3-methyloxetan-3-yl)carbonyl]piperidin-3-yl}imidazo[1,5-a]pyrazin-1-yl)-3-fluoro-N-[4-(trifluoromethyl)pyridin-2-yl]benzamide]
3 | < 0.01 | Cc1cnc(N)c2c(-c3ccc(C(=O)Nc4cc(C(F)(F)F)ccn4)cc3)nc([C@H]3CN(C(=O)C(F)F)CCO3)n12 [Example 538, 4-{8-amino-3-[(2R)-4-(difluoroacetyl)morpholin-2-yl]-5-methylimidazo[1,5-a]pyrazin-1-yl}-N-[4-(trifluoromethyl)pyridin-2-yl]benzamide, TFA salt]
4 | < 0.01 | CC(=O)N1CCC[C@@H](n2nc(-c3ccc(C(=O)Nc4cc(C(F)(F)F)ccn4)cc3)c3c(N)nccc32)C1 [Example 385, 4-{1-[(3R)-1-acetylpiperidin-3-yl]-4-amino-1H-pyrazolo[4,3-c]pyridin-3-yl}-N-[4-(trifluoromethyl)pyridin-2-yl]benzamide]
5 | < 0.01 | C[C@H]1CO[C@@H](c2nc(-c3ccc(C(=O)Nc4cc(C(F)(F)F)ccn4)cc3)c3c(N)nccn23)CN1C(=O)C1(C)COC1 [Example 515, 4-(8-amino-3-{(2R,5S)-5-methyl-4-[(3-methyloxetan-3-yl)carbonyl]morpholin-2-yl}imidazo[1,5-a]pyrazin-1-yl)-N-[4-(trifluoromethyl)pyridin-2-yl]benzamide, TFA salt]
6 | < 0.01 | CC1(C(=O)N2CCO[C@@H](c3nc(-c4ccc(C(=O)Nc5cc(C(F)(F)F)ccn5)cc4F)c4c(N)nccn34)C2)COC1 [Example 513, 4-(8-amino-3-{(2R)-4-[(3-methyloxetan-3-yl)carbonyl]morpholin-2-yl}imidazo[1,5-a]pyrazin-1-yl)-3-fluoro-N-[4-(trifluoromethyl)pyridin-2-yl]benzamide, TFA salt]
7 | < 0.01 | Nc1nccn2c([C@@H]3CCCN(C(=O)c4cnsn4)C3)nc(-c3ccc(C(=O)Nc4cc(C(F)(F)F)ccn4)cc3)c12 [Example 330, 4-{8-amino-3-[(3R)-1-(1,2,5-thiadiazol-3-ylcarbonyl)piperidin-3-yl]imidazo[1,5-a]pyrazin-1-yl}-N-[4-(trifluoromethyl)pyridin-2-yl]benzamide]
8 | < 0.01 | CC1(C(=O)N2CCC[C@@](O)(c3nc(-c4ccc(C(=O)Nc5cc(C(F)(F)F)ccn5)cc4)c4c(N)nccn34)C2)COC1 [Example 439, 4-(8-amino-3-{(3S)-3-hydroxy-1-[(3-methyloxetan-3-yl)carbonyl]piperidin-3-yl}imidazo[1,5-a]pyrazin-1-yl)-N-[4-(trifluoromethyl)pyridin-2-yl]benzamide]
9 | < 0.01 | Cc1cnc(N)c2c(-c3ccc(C(=O)Nc4cc(C(F)(F)F)ccn4)cc3)nc([C@H]3CN(Cc4cnn(C)c4)CCO3)n12 [Example 509, 4-(8-amino-5-methyl-3-{(2R)-4-[(1-methyl-1H-pyrazol-4-yl)methyl]morpholin-2-yl}imidazo[1,5-a]pyrazin-1-yl)-N-[4-(trifluoromethyl)pyridin-2-yl]benzamide]
10 | < 0.01 | CCn1ncc2c1CCC[C@H]2n1nc(-c2ccc(C(=O)Nc3cc(C(F)(F)F)ccn3)cc2)c2c(N)ncnc21 [Example 559, 4-{4-amino-1-[(4R)-1-ethyl-4,5,6,7-tetrahydro-1H-indazol-4-yl]-1H-pyrazolo[3,4-d]pyrimidin-3-yl}-N-[4-(trifluoromethyl)pyridin-2-yl]benzamide, TFA salt]
11 | < 0.01 | C[C@H](O)c1cnc(N)c2c(-c3ccc(C(=O)Nc4cc(C(F)(F)F)ccn4)cc3)nc([C@@H]3CCCN(C(=O)C4(C)COC4)C3)n12 [Example 466, 4-(8-amino-5-[(1S)-1-hydroxyethyl]-3-{(3R)-1-[(3-methyloxetan-3-yl)carbonyl]piperidin-3-yl}imidazo[1,5-a]pyrazin-1-yl)-N-[4-(trifluoromethyl)pyridin-2-yl]benzamide]
12 | < 0.01 | C[C@H]1CC[C@@H](c2nc(-c3ccc(C(=O)Nc4cc(OCC(F)(F)F)ccn4)cc3)c3c(N)nccn23)CN1C(=O)C1(C)COC1 [Example 418, 4-(8-amino-3-{(3R,6S)-6-methyl-1-[(3-methyloxetan-3-yl)carbonyl]piperidin-3-yl}imidazo[1,5-a]pyrazin-1-yl)-N-[4-(2,2,2-trifluoroethoxy)pyridin-2-yl]benzamide]
13 | < 0.01 | CCOCCN1CCO[C@@H](c2nc(-c3ccc(C(=O)Nc4cc(C(F)(F)F)ccn4)cc3)c3c(N)ncc(C)n23)C1 [Example 541, 4-{8-amino-3-[(2R)-4-(2-ethoxyethyl)morpholin-2-yl]-5-methylimidazo[1,5-a]pyrazin-1-yl}-N-[4-(trifluoromethyl)pyridin-2-yl]benzamide, TFA salt]
14 | < 0.01 | Nc1ncc(Cl)n2c([C@@H]3CCCN(C(=O)CO)C3)nc(-c3ccc(C(=O)Nc4cc(C(F)(F)F)ccn4)cc3)c12 [Example 441, 4-{8-amino-5-chloro-3-[(3R)-1-(hydroxyacetyl)piperidin-3-yl]imidazo[1,5-a]pyrazin-1-yl}-N-[4-(trifluoromethyl)pyridin-2-yl]benzamide]
15 | < 0.01 | COCCOCC(=O)N1CCO[C@@H](c2nc(-c3ccc(C(=O)Nc4cc(C(F)(F)F)ccn4)cc3)c3c(N)ncc(Cl)n23)C1 [Example 529, 4-(8-amino-5-chloro-3-{(2R)-4-[(2-methoxyethoxy)acetyl]morpholin-2-yl}imidazo[1,5-a]pyrazin-1-yl)-N-[4-(trifluoromethyl)pyridin-2-yl]benzamide]
16 | < 0.01 | Nc1ncc(Cl)n2c([C@H]3CN(CCO)CCO3)nc(-c3ccc(C(=O)Nc4cc(C(F)(F)F)ccn4)cc3)c12 [Example 535, 4-{8-amino-5-chloro-3-[(2R)-4-(2-hydroxyethyl)morpholin-2-yl]imidazo[1,5-a]pyrazin-1-yl}-N-[4-(trifluoromethyl)pyridin-2-yl]benzamide, TFA salt]
17 | < 0.01 | CCc1ccnc(NC(=O)c2ccc(-c3nc([C@@H]4CCCN(C(=O)C5(C)COC5)C4)n4ccnc(N)c34)cc2)c1 [Example 362, 4-(8-amino-3-{(3R)-1-[(3-methyloxetan-3-yl)carbonyl]piperidin-3-yl}imidazo[1,5-a]pyrazin-1-yl)-N-(4-ethylpyridin-2-yl)benzamide]
18 | < 0.01 | Nc1nccn2c([C@@H]3CCCN(C(=O)C4CC4(F)F)C3)nc(-c3ccc(C(=O)Nc4cc(C(F)(F)F)ccn4)cc3)c12 (stereo partly drawn) [Example 344, 4-(8-amino-3-{(3R)-1-[(2,2-difluorocyclopropyl)carbonyl]piperidin-3-yl}imidazo[1,5-a]pyrazin-1-yl)-N-[4-(trifluoromethyl)pyridin-2-yl]benzamide]
19 | < 0.01 | CC1(C(=O)N2CCC[C@@H](c3nc(-c4ccc(C(=O)Nc5cc(C6CCC6)ccn5)cc4)c4c(N)nccn34)C2)COC1 [Example 354, 4-(8-amino-3-{(3R)-1-[(3-methyloxetan-3-yl)carbonyl]piperidin-3-yl}imidazo[1,5-a]pyrazin-1-yl)-N-(4-cyclobutylpyridin-2-yl)benzamide]
20 | < 0.01 | Nc1ncnc2c1c(-c1ccc(C(=O)Nc3cc(C(F)(F)F)ccn3)cc1)nn2[C@H]1CCCc2c1cnn2CCO [Example 563, 4-{4-amino-1-[(4S)-1-(2-hydroxyethyl)-4,5,6,7-tetrahydro-1H-indazol-4-yl]-1H-pyrazolo[3,4-d]pyrimidin-3-yl}-N-[4-(trifluoromethyl)pyridin-2-yl]benzamide, TFA salt]
21 | < 0.01 | CC1(C(=O)N2CCC[C@@](C)(c3nc(-c4ccc(C(=O)Nc5cc(C(F)(F)F)ccn5)cc4)c4c(N)nccn34)C2)COC1 [Example 438, 4-(8-amino-3-{(3R)-3-methyl-1-[(3-methyloxetan-3-yl)carbonyl]piperidin-3-yl}imidazo[1,5-a]pyrazin-1-yl)-N-[4-(trifluoromethyl)pyridin-2-yl]benzamide]
22 | < 0.01 | Nc1ncc(Cl)n2c([C@@H]3CCCN(C=O)C3)nc(-c3ccc(C(=O)Nc4cc(C(F)(F)F)ccn4)cc3)c12 [Example 443, 4-{8-amino-5-chloro-3-[(3R)-1-formylpiperidin-3-yl]imidazo[1,5-a]pyrazin-1-yl}-N-[4-(trifluoromethyl)pyridin-2-yl]benzamide]
23 | < 0.01 | CCOCC(=O)N1CCO[C@@H](c2nc(-c3ccc(C(=O)Nc4cc(C(F)(F)F)ccn4)cc3)c3c(N)nccn23)C1 [Example 518, 4-{8-amino-3-[(2R)-4-(ethoxyacetyl)morpholin-2-yl]imidazo[1,5-a]pyrazin-1-yl}-N-[4-(trifluoromethyl)pyridin-2-yl]benzamide]
24 | 0.1 to 1 | Cc1cc(NC(=O)c2ccc(-c3nc([C@@H]4CCCN(C(=O)C5(C)COC5)C4)n4ccnc(N)c34)cc2)no1 [Example 353, 4-(8-amino-3-{(3R)-1-[(3-methyloxetan-3-yl)carbonyl]piperidin-3-yl}imidazo[1,5-a]pyrazin-1-yl)-N-(5-methylisoxazol-3-yl)benzamide]
25 | < 0.01 | Nc1nccn2c([C@H]3CN(C(=O)CO)CCO3)nc(-c3ccc(C(=O)Nc4cc(C(F)(F)F)ccn4)cc3)c12 [Example 517, 4-{8-amino-3-[(2R)-4-(hydroxyacetyl)morpholin-2-yl]imidazo[1,5-a]pyrazin-1-yl}-N-[4-(trifluoromethyl)pyridin-2-yl]benzamide]
26 | < 0.01 | Cc1cnc(N)c2c(-c3ccc(C(=O)Nc4cc(C(F)F)ccn4)cc3F)nc([C@@H]3CC[C@H](C)N(C(=O)C4(C)COC4)C3)n12 [Example 462, 4-(8-amino-5-methyl-3-{(3R,6S)-6-methyl-1-[(3-methyloxetan-3-yl)carbonyl]piperidin-3-yl}imidazo[1,5-a]pyrazin-1-yl)-N-[4-(difluoromethyl)pyridin-2-yl]-3-fluorobenzamide]

From patent US9718828B2 (MERCK SHARP & DOHME CORP., priority 2011, dated 2017)
